Type in all cases: in vivo
In series [1] the test system is Wheat. As to the method:
(§1) Herbicidal Action (Outdoor Trials)
(§2) The seeds or rhizome pieces of typical harmful plants were planted and grown under natural outdoor conditions. After the harmful plants had emerged, they were treated, as a rule at the 2- to 4-leaf stage, with various dosages of the compositions according to the invention at a water application rate of 100 to 400 I/ha (converted).
(§3) After the treatment (approx. 4-6 weeks after application), the herbidical activity of the active compounds or active compound mixtures was scored visually by comparing the treated plots with the untreated control plots. Damage and development of all above-ground parts of the plants was recorded. Scoring was done on a percentage scale (100% action=all plants dead; 50% action=50% of the plants and green plant parts dead; 0% action=no discernible action=like control plot). The score figures of in each case 4 plots were averaged.
(§4) The results are listed in the tables below, where the activity measured for the independent use of the active compounds (A) and (B) is stated in brackets and where g of AS/ha denotes grams of active substance per hectare.

Series [2] deals with Veronica hederifolia. The experiment in a line: Herbicidal action (outdoor trials), post-emergence, Veronica hederifolia. The following applies: visual score approx. 4-6 weeks after application, mean of 4 plots. As to the method:
as §1, §2, §3, §4

Series [3] concerns Setaria viridis. The experiment in a line: Herbicidal action (outdoor trials), post-emergence, Setaria viridis. The conditions noted are these: read-out: Setaria viridis % activity. As to the method: as §1, §2, §3, §4

Like-named read-outs stand apart in the source and are kept apart here.

In series [1] (25 g of AS/ha, outdoor, visual score approx. 4-6 weeks after application, mean of 4 plots), `CCOC(=O)/C(Cl)=C/c1cc(N2C(=O)C3=C(CCCC3)C2=O)ccc1Cl` [cinidon-ethyl (B7), ethyl (Z)-2-chloro-3-[2-chloro-5-(1,2-cyclohex-1-enedicarboximido)phenyl]acrylate] displayed a Wheat % activity of 0%. Besides, the Wheat % damage in series [1] (50 g of AS/ha, outdoor, visual score approx. 4-6 weeks after application, mean of 4 plots) amounted to 5%. Also, the “Veronica hederifolia % damage” value in series [2] (25 g of AS/ha) is recorded as 35%. For the same molecule, the “Veronica hederifolia % activity” value in series [2] (50 g of AS/ha) was found to be 25%.
The molecule `COc1ncc(F)c2nc(S(=O)(=O)Nc3c(F)cccc3F)nn12` [florasulam (B3), 2′,6′,8′-trifluoro-5-methoxy[1,2,4]triazolo[1,5-c]pyrimidine-2-sulfanilide] displayed a Wheat % activity in series [1] (4 g of AS/ha, outdoor, visual score approx. 4-6 weeks after application, mean of 4 plots) of 0%. For the same molecule, the “Veronica hederifolia % damage” value in series [2] (4 g of AS/ha) came to 60%.
Molecule `COc1nn(C(=O)NS(=O)(=O)c2ccccc2OC(F)(F)F)c(=O)n1C.[Na]` [flucarbazone (B1), 4,5-dihydro-3-methoxy-4-methyl-5-oxo-N-(2-trifluoromethoxyphenylsulfonyl)-1H-1,2,4-triazole-1-carboxamide sodium salt] displayed a Wheat % damage in series [1] (10 g of AS/ha, outdoor, visual score approx. 4-6 weeks after application, mean of 4 plots) of 5%. The inhibition at 10 g/ha in series [3] was 40%.
For the molecule `O=C(Nc1ccc(F)cc1)c1cccc(Oc2cccc(C(F)(F)F)c2)n1` [picolinafen (B6), 4′-fluoro-6-[(α,α,α-trifluoro-m-tolyl)oxy]picolinanilide], in series [1] (in vivo), the Wheat % activity is 0% and the Wheat % damage is given as 0%. Moreover, the “Veronica hederifolia % damage” value in series [2] (5 g of AS/ha) came to 55%. Moreover, the inhibition at 30 g/ha in series [2] (Veronica hederifolia, 30 g of AS/ha) amounted to 65%.

Source of the values: patent US8158558B2, “Herbicide combinations comprising specific sulfonylureas” (Bayer CropScience GmbH, priority 2001, dated 2012).
